# Experimental data taken from US20230054194A1, “Methods of Treating Cancer” (ARIAGEN, INC., priority 2018, published 2023).
# Tested on: CT26.WT
# Assay: Subcutaneous syngeneic CT26.WT colon carcinoma mouse model, ARI-001 with anti-mCTLA-4 antibody (Example 153)
# Format: in vivo
# Experimental: In this example, the in vivo anti-tumor efficacy of ARI-001, an antibody against mouse CTLA-4 (mCTLA-4), and a combination of the two agents was evaluated using the subcutaneous syngeneic CT26.WT (aka CT-26) colon carcinoma mouse model.
# CT26.WT cells were obtained from the ATCC and grown in RPMI 1640 medium supplemented with 10% FBS at 37° C. in a 5% CO2 atmosphere. Female Envigo BALB/c mice (BALB/cANNHsd) of 5-6 weeks old were implanted subcutaneously in the right axilla (high) on Day 0 with 5.0×10^5 cells/mouse in 200 μl using a 27-gauge needle and syringe.
# ARI-001 powder was dissolved in 100% DMSO to obtain a 106.67 mg/ml dosing formulation with a pH of 7.6. The dosing solution was stored at room temperature and protected from light. The anti-mCTLA-4 9D9 was obtained from BioXcell.
# All mice were sorted into study groups based on caliper estimation of tumor burden. Each study group had ten mice. The mice were distributed to ensure that the mean tumor burden for all groups was within 10% of the overall mean tumor burden for the study population. Treatment began on Day 7 at an overall mean tumor burden of 89 mm^3 (range of group means, 87-91 mm^3). All mice were dosed according to individual body weight on the day of treatment (0.2 mL/20 g for anti-mCTLA-4 and vehicle (PBS), 30 μL/20 g for ARI-001 and vehicle (DMSO)). All agents were given to the mice intraperitoneally.
# Tumor measurements were recorded three times weekly. Tumor burden (mm^3) was estimated from caliper measurements by the formula for the volume of a prolate ellipsoid assuming unit density as:
# Tumor burden(mm^3)=(L×W^2)/2,
# The primary endpoints used to evaluate efficacy at the group level were: tumor growth delay, increased time to progression (% ITP), median ΔT/ΔC, complete and partial tumor response, and the number of tumor-free survivors at the end of the study. Tumor growth delay for this experiment was evaluated at 750 mm^3. Time to progression study for this experiment was evaluated at 2,000 mm^3. This is the IACUC required tumor burden limit, and the time to euthanasia can be thought of as a surrogate for lifespan.
# In this experiment, median ΔT/ΔC was evaluated when the median control tumor burden reached 1,000 mm^3 (Day 17). A mouse was considered a putative responder if it met at least one of the following criteria: complete regression of the tumor or being at least two standard deviations larger than the median time to progression of the control group. The following are the definitions of the efficacy parameters mentioned above: ΔC and ΔT are individual mouse endpoints that are calculated for each mouse as follows:
# Median ΔT/ΔC is a group endpoint. It is calculated for each day of treatment as:
# The results are presented as %. When the median ΔT/ΔC is negative (the median treated tumor burden is regressing), the median ΔT/ΔC is not reported and the Median % Regression is reported instead.
# Time to Evaluation Size (TES)—TES is an individual mouse endpoint and it is expressed in days from tumor implant. It is the time it takes the tumor burden to reach a specified value, and it can be calculated from any method of evaluating tumor burden (caliper measurements, BLI, anatomical imaging, etc.). It is calculated by log-linear interpolation between the two closest data points that bracket the chosen tumor burden.
# Time to Progression (TP)—Time to progression is a surrogate for lifespan, time on study, or lifespan. It is used for studies that involve IACUC mandated euthanasia of animals for excessive tumor burdens (even if the animals otherwise appear normal). The mandated tumor burden limit is tumor model dependent. TP data is analyzed by Kaplan Meier methods just as traditional life span data. The Time to Progression for an individual animal is the number of days between initiation of treatment and the death or required euthanasia of that animal. […]
structure (smiles),measurement,setting,value
COC(=O)c1csc(C(=O)c2c[nH]c3ccccc23)n1 [ARI-001],Incidence of putative responders,"CT26.WT, ARI-001 160 mg/kg/inj., 9D9 10 mg/kg/inj.",70%
same,Tumor Growth Delay,"CT26.WT, ARI-001 160 mg/kg/inj., 9D9 10 mg/kg/inj., intraperitoneally",2.9 days
same,Day 17 Median ΔT/ΔC,"Day 17, ARI-001 160 mg/kg/inj., 9D9 10 mg/kg/inj., intraperitoneally",44%
same,CR,complete response,0%
same,MBW Change,"mean body weight change during treatment, ARI-001 160 mg/kg/inj., 9D9 10 mg/kg/inj., intraperitoneally",−8.3%
same,Increase in MTP,"median time to progression, 2,000 mm^3, relative to Group 1",40%
